Values quoted from earlier work as cited in patent publication US8524293B1, “Method for producing a red grape tea-like composition” (priority 2009, dated 2013).

Columns and labels:
[1] = test system: flu; settings: laboratory animals
[2] = test system: intestinal tumor formation; settings: cancerous mouse

| Compound | risk of flu [1] | focal adhesion kinase activation [2] | intestinal tumor formation [2] |
| --- | --- | --- | --- |
| O=c1c(O)c(-c2ccc(O)c(O)c2)oc2cc(O)cc(O)c12 [quercetin] | reduce the risk of flu | – | – |
| catechin | – | suppressed focal adhesion kinase activation | inhibited intestinal tumor formation |
